Measured values taken from ChEMBL document CHEMBL4610029, “Essential structure of orexin 1 receptor antagonist YNT-707, part V: Structure-activity relationship study of the substituents on the 17-amino group” (Bioorg Med Chem Lett, 2020).

Molecular target: T1, Orexin/Hypocretin receptor type 1 (Homo sapiens, UniProt O43613)
T1 sequence (O43613 whole entry): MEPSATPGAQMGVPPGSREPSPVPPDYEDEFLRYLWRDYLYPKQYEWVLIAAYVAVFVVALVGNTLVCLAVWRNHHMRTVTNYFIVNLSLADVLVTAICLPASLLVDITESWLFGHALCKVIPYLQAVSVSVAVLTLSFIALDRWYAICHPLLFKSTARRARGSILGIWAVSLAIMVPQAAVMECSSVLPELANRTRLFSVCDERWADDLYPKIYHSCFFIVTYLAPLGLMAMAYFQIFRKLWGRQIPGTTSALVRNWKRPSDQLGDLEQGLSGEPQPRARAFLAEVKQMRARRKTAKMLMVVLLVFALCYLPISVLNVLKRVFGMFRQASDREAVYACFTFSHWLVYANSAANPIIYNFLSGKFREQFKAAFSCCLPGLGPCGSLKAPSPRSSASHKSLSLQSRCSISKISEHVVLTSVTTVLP
Experiment: Antagonist activity at OX1R (unknown origin) assessed as inhibition of orexin A-induced intracellular Ca2+ release by cell-based assay
Type: functional
Conditions: not given; call rule not given here

| Ki | Structure (SMILES) |
| --- | --- |
| Not Active | COc1ccc2c3c1O[C@@H]1C3[C@@](O)(CC[C@H]1N(C)C(=O)/C=C/c1ccoc1)[C@H](NCC1CC1)C2 (stereo partly specified) |

Same assay, conditions: read-out: Ki

| Ki [nM] | Structure (SMILES) |
| --- | --- |
| 1200 | COc1ccc2c3c1O[C@@H]1C3[C@]3(CC[C@H]1N(C)C(=O)/C=C/c1ccoc1)OS(=O)(=O)N(CC1CC1)[C@@H]3C2 (stereo partly specified) |
| 275 | COc1ccc2c3c1O[C@@H]1C3[C@@](O)(CC[C@H]1N(C)C(=O)/C=C/c1ccoc1)[C@H](N(CC1CC1)C(=O)c1ccccc1)C2 (stereo partly specified) |
| 14.8 | COc1ccc2c3c1O[C@@H]1C3[C@@H](CC[C@H]1N(C)C(=O)/C=C/c1ccoc1)[C@H](N(CC1CC1)C(=O)OC(C)(C)C)C2 (stereo partly specified) |
| 392 | COc1ccc2c3c1O[C@@H]1C3[C@@H](CC[C@H]1N(C)C(=O)/C=C/c1ccoc1)[C@H](NCC1CC1)C2 (stereo partly specified) |
| 1090 | COc1ccc2c3c1O[C@@H]1C3[C@@](O)(CC[C@H]1N(C)C(=O)/C=C/c1ccoc1)[C@H](N(CC1CC1)C(=O)C1CC1)C2 (stereo partly specified) |
| 829 | COc1ccc2c3c1O[C@@H]1C3[C@@H](CC[C@H]1N(C)C(=O)/C=C/c1ccoc1)[C@H](N(C)S(=O)(=O)c1ccccc1)C2 (stereo partly specified) |
| 72.8 | COc1ccc2c3c1O[C@@H]1C3[C@@](O)(CC[C@H]1N(C)C(=O)/C=C/c1ccoc1)[C@H](N(CC1CC1)C(=O)OC(C)(C)C)C2 (stereo partly specified) |
| 538 | COc1ccc2c3c1O[C@@H]1C3[C@]3(CC[C@H]1N(C)C(=O)/C=C/c1ccoc1)OC(=O)N(CC1CC1)[C@@H]3C2 (stereo partly specified) |
| 50.1 | COc1ccc2c3c1O[C@@H]1C3[C@@H](CC[C@H]1N(C)C(=O)/C=C/c1ccoc1)[C@H](N(C)CC1CC1)C2 (stereo partly specified) |

Molecular target: T2, Orexin/Hypocretin receptor type 1 (Homo sapiens) (UniProt O43613)
T2 sequence (whole entry): T1 sequence (O43613 whole entry)
Experiment: Antagonist activity at OX1R (unknown origin) assessed as inhibition of orexin A-induced intracellular Ca2+ release at 10 uM by cell-based assay relative to control
Type: functional
Conditions: not given

| inhibition [%] | Structure (SMILES) |
| --- | --- |
| 48 | COc1ccc2c3c1O[C@@H]1C3[C@@](O)(CC[C@H]1N(C)C(=O)/C=C/c1ccoc1)[C@H](N(CC1CC1)C(C)=O)C2 (stereo partly specified) |
